Measured values taken from patent publication US20090054329A1, “COMPOSITION WITH DOCOSAPENTAENOIC ACID” (N.V. Nutricia, priority 2005, published 2009).

Assays:
[1] = test system: intestinal epithelial cell lines T84; test: Transepithelial resistance (TER) of T84 monolayers; assay type: cell-based, human; conditions: for Resistance (TER) Disrupted by IL-4 / Resistance (TER) Basal: T84 monolayers, fatty acid 100 μM, 72 hr incubation; for Resistance (TER) Disrupted by IL-4: IL-4 mediated barrier disruption; for Effect on epithelial resistance (in words): both under basal and barrier disruptive conditions, 100 μM, 72 hr; for Effect on barrier integrity and epithelial paracellular permeability (in words): summary statement
Protocol: Monolayers (MC) of intestinal epithelial cell lines T84 (American Type Culture Collection (ATTC), Manassas, USA) were cultured on transwell filters (Corning, Costar BV, The Netherlands) allowing both mucosal and serosal sampling and stimulation of human intestinal epithelial cells. […] Louis, USA). The latter procedure was chosen to mimic the in vivo administration route of the dietary compounds. […] Experiments were performed to evaluate basal barrier integrity and cytokine (IL-4) induced barrier disruption. The epithelial barrier function was determined by measuring the transepithelial resistance (TER, Ω.cm^2) by epithelial volt-ohm meter (EVOM; World Precision Instruments, Germany) and permeability for 4 kD FITC dextran (paracellular permeability marker, Sigma, USA). Epithelial permeability for 4 kDa FITC-dextran was determined as follows. Prior to dextran fluxes the medium was refreshed with culture medium without phenol red for one hour followed by addition of 5 μl (stock 100 mg/ml) 4 kDa FITC-dextran to the luminal compartment. After 60 min of incubation 100 μl sample was collected from the serosal compartment and the fluorescent signal measured at excitation wavelength 485 nm and emission 520 nm (FLUOstar Galaxy®, BMG Labtechnologies, USA). FITC-dextran fluxes were calculated as pmol FITC-dextran/cm^2/h. Statistical analyses were performed using the ANOVA (SPSS version 10).

[2] = test system: intestinal epithelial cell lines T84; test: Permeability for 4 kD FITC dextran (flux) across T84 monolayers; assay type: cell-based, human; conditions: for Permeability (Flux) Increased by IL-4: T84 monolayers, fatty acid 100 μM, 72 hr incubation, IL-4, 4 kDa FITC-dextran; for Effect on increase of permeability caused by cytokines (in words): incubations with cytokines (IL-4), 100 μM, 72 hr
Protocol: Monolayers (MC) of intestinal epithelial cell lines T84 (American Type Culture Collection (ATTC), Manassas, USA) were cultured on transwell filters (Corning, Costar BV, The Netherlands) allowing both mucosal and serosal sampling and stimulation of human intestinal epithelial cells. Two weeks post confluence the monolayers were incubated in the luminal compartment with polyunsaturated fatty acids DPA (7,10,13,16,19-docosapentaenoic acid, 22:5 n3), AA (arachidonic acid; 5,8,11,14-eicosatetraenoic acid), DHA (cis-4,7,10,13,16,19 docosahexaenoic acid), EPA (eicosapentaenoic acid) or control palmitic (C 16:0) acid (Palm) (Sigma, St. Louis, USA). The latter procedure was chosen to mimic the in vivo administration route of the dietary compounds. Cells were incubated with DPA, AA, DHA, EPA, or palmitic acid for 0, 24, 48 and 72 h at 100 μM.
Experiments were performed to evaluate basal barrier integrity and cytokine (IL-4) induced barrier disruption. The epithelial barrier function was determined by measuring the transepithelial resistance (TER, Ω.cm^2) by epithelial volt-ohm meter (EVOM; World Precision Instruments, Germany) and permeability for 4 kD FITC dextran (paracellular permeability marker, Sigma, USA). Epithelial permeability for 4 kDa FITC-dextran was determined as follows. Prior to dextran fluxes the medium was refreshed with culture medium without phenol red for one hour followed by addition of 5 μl (stock 100 mg/ml) 4 kDa FITC-dextran to the luminal compartment. After 60 min of incubation 100 μl sample was collected from the serosal compartment and the fluorescent signal measured at excitation wavelength 485 nm and emission 520 nm (FLUOstar Galaxy®, BMG Labtechnologies, USA). FITC-dextran fluxes were calculated as pmol FITC-dextran/cm^2/h. Statistical analyses were performed using the ANOVA (SPSS version 10).

MUC-2 expression = conditions: MC T84 and CC T84; compared to propionate and butyrate
Text: See also the examples in applicants' co-pending European application no. 04748674.1).

Compound | Resistance (TER) Disrupted by IL-4 [1] | Resistance (TER) Basal [1] | Effect on epithelial resistance (in words) [1] | Permeability (Flux) Increased by IL-4 [2] [pmol FITC-dextran/cm^2/h] | Effect on increase of permeability caused by cytokines (in words) [2] | Effect on barrier integrity and epithelial paracellular permeability (in words) [1] | Stimulation of MUC-2 expression (mucus production) (MUC-2 expression)
CCCCCC=CCC=CCC=CCC=CCCCC(=O)O [AA, 5,8,11,14-eicosatetraenoic acid] | 337 ± 13 Ω.cm^2 | 634 ± 29 Ω.cm^2 | improve epithelial resistance | 273 ± 76 | effectively reduced | – | –
CCC=CCC=CCC=CCC=CCC=CC/C=C\CCC(=O)O [DHA, cis-4,7,10,13,16,19 docosahexaenoic acid] | 328 ± 7 Ω.cm^2 | 584 ± 50 Ω.cm^2 | improve epithelial resistance | 304 ± 75 | effectively reduced | – | –
CCC=CCC=CCC=CCC=CCC=CCCCCCC(=O)O [DPA, 7,10,13,16,19-docosapentaenoic acid] | 368 ± 4 Ω.cm^2 | 605 ± 27 Ω.cm^2 | improve epithelial resistance | 216 ± 123 | effectively reduced | effectively improves barrier integrity and reduces epithelial paracellular permeability | –
CC/C=C\C/C=C\C/C=C\C/C=C\C/C=C\CCCC(=O)O [EPA, eicosapentaenoic acid] | 375 ± 9 Ω.cm^2 | 584 ± 7 Ω.cm^2 | – | 236 ± 145 | – | – | –
CCCCCCCCCCCCCCCC(=O)O [Palmitic acid, palmitic acid] | 272 ± 11 Ω.cm^2 | 496 ± 50 Ω.cm^2 | not effective | 646 ± 106 | not | – | –
CC(=O)O [acetate] | – | – | – | – | – | – | more potent in stimulating MUC-2 expression
CCCCC/C=C\C/C=C\CCCCCCCC(=O)O [linoleic acid] | – | – | – | – | – | ineffective | –
